In US20260373226A1, “METHODS AND COMPOSITIONS FOR THE TREATMENT OF NEURODEGENERATIVE DISEASE” (Stealth BioTherapeutics Inc., priority 2022, published 2026):

Assays:
[1] = Brain exposure PK in rats after single SC dose; type: in vivo; conditions: rat; single 5 mg/kg SC
Procedure: FIG. 2A is a chart showing the in vivo pharmacokinetic (PK) and pharmacodynamic (PD) response to SBT-272 brain exposure in rats. Rat brain SBT-272 concentrations up to 36 hours after a single dose of SBT-272 (5 mg/kg; subcutaneous (SC); n=8 rats per time-point).
Evaluation of SBT-272 exposure in brain tissues after subcutaneous dosing. Brain tissues were collected, at various time points (see FIG. 2A) following a single 5 mg/kg subcutaneous (SC) administration of SBT-272 (n=8 rats per time point).
Briefly, issues samples were weighed in 2 mL microcentrifuge tubes (micro tube 2 mL, low protein binding, with screw cap, REF 72.694.600 (Sarstedt, Germany), weight of tissues was recorded in the study file. The centrifuge tubes were kept on ice throughout the procedure. Four times tissue weight purified deionized water with 0.1% formic acid (v/w) was added. Two metal beads were placed in each microcentrifuge tube (Metal Bead Lysing Matrix Bulk, MP, USA). Brain tissues were homogenized using Bead Ruptor (Omni International, USA) for 60 seconds using a speed of […] per cycle. Homogenates (96 μL) were transferred to […] microcentrifuge tubes with surface that minimized binding (REF 04-212-3500, Nerbe Plus, Germany). Homogenates were frozen and kept at −80 °C until sample extraction for LC/MS/MS analysis. Two samples (twice 96 μL) collected, one kept if repeat required. […]

[2] = tested on: models of neurodegeneration; assay: In vitro effect concentration (in vitro-in vivo correlation); type: cell-based; conditions: FIG. 3A
Text: See Guatam M., Platform presentation. NEALS, 2022. […] See Keefe, et al. (2019); Gautam, et al. (2022); Guatam, et al. (2021). Gautam, et al., SBT-272 improved mitochondria structure and function and preserved upper motor neurons with TDP-43 pathology, Platform poster presentation, presented at NEALS poster session (2022); Bido, et al. (2021); Silva, et al. (2022); and Zariwala, et al., Effects of the mitochondria-targeting small molecule SBT-272 in the R6/2 transgenic mice of Huntington's Disease, Poster presented at Keystone Symposia poster Session, 2022.

In the case of `Cc1cc(O)cc(C)c1C[C@H](NC(=O)[C@H](N)CCCNC(=N)N)C(=O)N[C@@H](CCCCN)c1nc(Cc2ccccc2)no1` [SBT-272, (R)-2-amino-N—((S)-1-(((S)-5-amino-1-(3-benzyl-1,2,4-oxadiazol-5-yl)pentyl)amino)-3-(4-hydroxy-2,6-dimethylphenyl)-1-oxopropan-2-yl)-5-guanidinopentanamide], the “brain penetration / biodistribution across the blood-brain-barrier” value [1] is reported as “brain penetrant and exhibited optimized biodistribution across the blood-brain-barrier” and the “optimal in vitro effects, concentration” value [2] is reported as 10 to 100 nM.
